Assay [1] deals with T1, parietal cell H^+ K^+ ATPase (Oryctolagus cuniculus, UniProt P27112).
T1 construct: determined in fundic mucosa from New Zealand white rabbits which were homogenized; from tissue; host or cells: fundic mucosa of New Zealand white rabbits, homogenized; membrane protein
The assay is described as follows: Inhibition of parietal cell H+ K+ ATPase. The conditions noted are these: Example 49; for IC50: given as "50% @ x μM", read-out: % Inhibition at Concentration (H+ K+ ATPase): concentration given for 50% inhibition; for inhibition at 100 µM: @ 10^-4 M, read-out: % Inhibition at Concentration (H+ K+ ATPase). The class given is biochemical, New Zealand white rabbits. Here is the method: Inhibition of Parietal Cell H^+ K^+ ATPase
The activity was measured in a 1 ml incubation volume containing 50 mM Tris pH 7.4, 2 mM MgCl2, 2 mM Na2 ATP, with or without 20 mM KCl and vehicle control (dimethylsulfoxide) or test compound added in a 0.02 ml volume. Typically, 20-50 μg membrane protein was added and the tubes were preincubated with test compound for 10 minutes at 37° C. Substrate, Na2 ATP, was then added and the tubes were incubated for another 15 minutes at 37° C. The reaction was stopped by the addition of 1 ml 14% trichloroacetic acid and the samples were centrifuged at 2,000 xg for 10 minutes. The amount of inorganic phosphate present in an aliquot of supernatant was determined. H^+ K^+ ATPase activity was determined after correcting for the basal (Mg^++ only) enzyme activity present in the membrane preparation.

Assay [2] has as its system histamine stimulated parietal cell. The assay is described as follows: Isolated parietal cell assay, inhibition of 14C-aminopyrine accumulation, histamine stimulated. To be noted: Oryctolagus cuniculus, 20 min, Example 48, 37° C., read-out: IC50 vhist (inhibition of 14C-AP accumulation in histamine stimulated parietal cell). The class given is cell-based, rabbit. Here is the method: (§1) Isolated Parietal Cell Assay
(§2) The isolated parietal cell assay was conducted using the procedures of Batzri, S. et al., Biochemica et Biophysica Acta 508, 328 (1978) and Soll, A. H. Am. J. Physiol. 238, G366 (1980). Basically, parietal cells were isolated from the fundic mucosa of rabbit stomachs by a four-stage collagenase digestion process. The supernatant fractions from the last two stages of this process contain the individual parietal cells. This cell suspension was centrifuged and reconstituted in a modified Hank's buffer to contain 1-2×10^6 cells/ml. […] This accumulation was stimulated by histamine and was blocked by H2 antagonists. The cells were incubated with 0.4-0.5×10^6 cpm ^14 C-AP, with various concentrations of histamine as a stimulant, 1×10^-5 M isobutylmethylxanthine, and the test compound added in a 20 μl volume of buffer or DMSO. The flasks were incubated in a shaking water bath at 37° C. for 20 minutes. Two aliquots were then taken from each flask and cell pellets were collected by centrifugation. The pellets were solubilized with Protosol (New England Nuclear) and radioactivity determined by liquid scintillation spectrometry. Data is presented as the IC50 vhist, the concentration of compound required to inhibit ^14 C-AP accumulation in the histamine stimulated parietal cell by 50%. When dibutyryl cAMP was used to stimulate the cells instead of histamine, a similar inhibition of ^14 C-AP accumulation was measured and the data are presented as the IC50 vcAMP, the concentration required to inhibit ^14 C-AP accumulation in the cAMP stimulated parietal cells by 50%.

In assay [3] the test system is cAMP stimulated parietal cells. The assay is described as follows: Isolated parietal cell assay, inhibition of 14C-aminopyrine accumulation, dibutyryl cAMP stimulated. The class given is cell-based, rabbit. The conditions noted are these: Oryctolagus cuniculus, 20 min, Example 48, 37° C., read-out: IC50 vcAMP (inhibition of 14C-AP accumulation in cAMP stimulated parietal cells). Here is the method: as §1, §2

The test system of assay [4] is acid output. The assay is described as follows: Gastric secretion, acid output in pylorus ligated rats. The class given is in vivo, male Charles River Sprague Dawley derived rats. The conditions noted are these: Example 50, i.d. or s.c., four hours after pylorus ligation, compared to control; for response vs control in vivo at 40 mg/kg / response vs control in vivo at 20 mg/kg: Rattus norvegicus, 4 h, read-out: % Acid Secreted at mpK; for response vs control in vivo at 40 mg/kg: @ 40 mpK; for response vs control in vivo at 20 mg/kg: @ 20 mpK. Here is the method:
The inhibitory activity of the compounds on acid output was tested using pylorus ligation in a modification of the procedure of Shay, H. et al., Gastroenterology 26, 906 (1954). Basically, male Charles River Sprague Dawley derived rats weighing 150-300 grams were deprived of food but not water for 18-24 hours prior to use. Water was withheld during the experiment, however. The rats were weighed, anesthetized with ether and the pylorus ligated according to the method of Shay et al., supra. Treatment or vehicle control was then administered intraduodenally (i.d.) or subcutaneously (s.c.). Rats were housed two/cage and sacrificed with CO2 four hours after ligation. The stomachs were removed, rinsed, and contents emptied into a graduated centrifuge tube. The tubes were centrifuged, the volume of gastric juice recorded, and any samples obviously contaminated by feces, food or blood were eliminated. A 1 ml aliquot of gastric juice was titrated with 0.1N NaOH to a pH of 7.0-7.4. The volume of gastric juice secreted, the acid concentration, and the product of the volume times the concentration, i.e., the total amount of acid secreted, were measured.

T1 sequence (P27112 2-1035 limits assumed): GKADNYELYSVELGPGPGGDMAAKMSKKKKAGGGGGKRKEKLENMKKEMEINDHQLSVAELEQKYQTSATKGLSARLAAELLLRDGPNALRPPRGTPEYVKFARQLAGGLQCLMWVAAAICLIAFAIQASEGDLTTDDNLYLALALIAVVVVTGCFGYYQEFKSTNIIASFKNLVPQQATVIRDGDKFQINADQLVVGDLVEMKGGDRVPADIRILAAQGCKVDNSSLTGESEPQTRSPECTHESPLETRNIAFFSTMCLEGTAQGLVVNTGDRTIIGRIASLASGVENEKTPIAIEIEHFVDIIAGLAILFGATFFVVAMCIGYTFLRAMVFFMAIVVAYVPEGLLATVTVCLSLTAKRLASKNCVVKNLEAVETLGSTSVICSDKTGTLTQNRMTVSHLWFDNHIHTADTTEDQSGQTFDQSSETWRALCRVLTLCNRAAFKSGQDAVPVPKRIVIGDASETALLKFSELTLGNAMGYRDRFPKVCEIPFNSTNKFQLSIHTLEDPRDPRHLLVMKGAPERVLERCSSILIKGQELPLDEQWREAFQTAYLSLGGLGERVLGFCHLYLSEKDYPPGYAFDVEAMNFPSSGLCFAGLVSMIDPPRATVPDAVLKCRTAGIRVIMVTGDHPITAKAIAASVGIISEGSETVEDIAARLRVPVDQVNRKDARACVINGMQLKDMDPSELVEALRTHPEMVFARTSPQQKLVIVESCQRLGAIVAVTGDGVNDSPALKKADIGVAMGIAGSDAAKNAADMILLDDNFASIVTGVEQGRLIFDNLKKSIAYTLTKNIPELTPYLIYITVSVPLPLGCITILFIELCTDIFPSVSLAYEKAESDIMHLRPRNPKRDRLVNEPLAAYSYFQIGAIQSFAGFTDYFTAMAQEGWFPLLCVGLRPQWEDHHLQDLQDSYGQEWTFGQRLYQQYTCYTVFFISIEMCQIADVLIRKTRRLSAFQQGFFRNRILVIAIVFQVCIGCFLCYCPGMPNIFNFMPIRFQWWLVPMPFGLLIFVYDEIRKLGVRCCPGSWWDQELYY
T1 sequence (P18597 whole entry partner): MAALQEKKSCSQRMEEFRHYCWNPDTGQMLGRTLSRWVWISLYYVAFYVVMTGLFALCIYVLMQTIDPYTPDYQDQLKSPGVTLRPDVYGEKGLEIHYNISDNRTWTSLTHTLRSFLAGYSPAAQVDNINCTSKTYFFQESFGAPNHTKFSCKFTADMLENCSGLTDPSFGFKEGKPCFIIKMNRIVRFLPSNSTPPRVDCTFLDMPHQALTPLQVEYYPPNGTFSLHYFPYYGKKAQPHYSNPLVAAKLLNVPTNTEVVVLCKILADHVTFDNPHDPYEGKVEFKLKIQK

In the case of `CCCN(CCC)CCCCOc1ccc(/C=C/c2nc3ccccc3s2)cc1` [Example 38], the IC50 was 21 µM in assay [1], 30 nM in assay [2] and 120 nM in assay [3]. Further, the response vs control in vivo at 40 mg/kg in assay [4] was determined as 93%.

For `C(=C\c1nc2ccccc2o1)/c1ccc(OCCCCCn2ccnc2)cc1` [Example 24], the results for the IC50 in assay [1], in assay [2] and in assay [3] were 13 µM, 280 nM and 230 nM, respectively. In addition, the response vs control in vivo at 20 mg/kg in assay [4] worked out at 45%.

With `CCCN(CCC)CCCCOc1cccc(/C=C/c2nc3ccccc3s2)c1` [Example 26, (E)-2-[2-(3-Dipropylaminobutoxyphenyl)ethenyl]benzothiazole], the IC50 was 19 µM in assay [1], 90 nM in assay [2] and 180 nM in assay [3]. In addition, in assay [4], the response vs control in vivo at 20 mg/kg was found to be 42%. Moreover, in assay [4], the response vs control in vivo at 40 mg/kg amounted to 80%.

As for `CCCCN(CCCC)CCCOc1ccc(/C=C/c2nc3ccc(OC)cc3s2)cc1` [Example 35, (E)-2-[2-(4-Dibutylaminopropoxyphenyl)ethenyl]-6-methoxybenzothiazole], the values for the IC50 in assay [1], in assay [2] and in assay [3] were 60 µM, 260 nM and 460 nM, respectively. The response vs control in vivo at 20 mg/kg in assay [4] was 31%.

As for `CCCCN(CCCC)CCOc1ccc(/C=C/c2nc3ccccc3o2)cc1` [Example 17, (E)-2-[2-(4-Dibutylaminoethoxyphenyl)ethenyl]benzoxazole], the inhibition at 100 µM in assay [1] worked out at 43%. The IC50 in assay [2] turned out to be 260 nM; in assay [3], 540 nM. Moreover, the response vs control in vivo at 20 mg/kg in assay [4] was 43%.

Consider `C(=C\c1nc2ccccc2s1)/c1ccc(OCCCn2ccnc2)cc1` [Example 32, (E)-2-[2-(4-(1H-Imidazol-1-yl)propoxyphenyl)ethenyl]benzothiazole], for which the IC50 in assay [2] is 130 nM; in assay [3], 340 nM. Moreover, in assay [4], the response vs control in vivo at 20 mg/kg was determined as 22%.

As for `CCCN(CCC)CCCCOc1ccc(/C=C/c2nc3ccccc3o2)cc1` [Example 20], the IC50 is 21 µM in assay [1], 390 nM in assay [2] and 110 nM in assay [3]. Further, the “% Acid Secreted at mpK” value in assay [4] (@ 10 mpK) was 59%. In assay [4], the response vs control in vivo at 20 mg/kg was 90%.

On to `COc1ccc2nc(/C=C/c3cccc(OCCCCn4ccnc4)c3)oc2c1` [Example 7, (E)-2-[2-(3-(1H-Imidazol-1-yl)butoxyphenyl)ethenyl]-6-methoxybenzoxazole], for which the IC50 in assay [1] was found to be 74 µM; in assay [2], 120 nM; in assay [3], 180 nM.

For `C(=C\c1nc2ccccc2o1)/c1ccc(OCCCCN2CCCC2)cc1` [Example 23, (E)-2-[2-(4-Pyrrolinobutoxyphenyl)ethenyl]benzoxazole], the IC50 in assay [1] was 84 µM; in assay [2], 170 nM; in assay [3], 240 nM. In addition, the response vs control in vivo at 40 mg/kg in assay [4] is 24%.

On to `CCCN(CCC)CCCOc1c(OC)cc(/C=C/c2nc3ccccc3o2)cc1OC` [Example 46, (E)-2-[2-(3,5-Dimethoxy-4-dipropylaminopropoxyphenyl)ethenyl]benzoxazole], for which the IC50 in assay [1] was found to be 33 µM; in assay [2], 150 nM; in assay [3], 360 nM. For the same molecule, the response vs control in vivo at 20 mg/kg in assay [4] came to 46%.

For the molecule `C(=C\c1nc2ccccc2s1)/c1ccc(OCCCCN2CCCC2)cc1` [Example 42, (E)-2-[2-(4-Pyrrolidinobutoxyphenyl)ethenyl]benzothiazole], the IC50 in assay [1] came to 17 µM; in assay [2], 160 nM; in assay [3], 260 nM. In addition, in assay [4], the response vs control in vivo at 40 mg/kg is 20%.

With `CCCN(CCC)CCCOc1cccc(/C=C/c2nc3ccccc3o2)c1` [Example 3, (E)-2-[2-(3-Dipropylaminopropoxyphenyl)ethyenyl]benzoxazole], the figures for the IC50 in assay [1], in assay [2] and in assay [3] were 29 µM, 200 nM and 240 nM, respectively. For the same molecule, in assay [4], the response vs control in vivo at 20 mg/kg was 49%.

As for `C(=C\c1nc2ccccc2o1)/c1cccc(OCCCCn2ccnc2)c1` [Example 6], the IC50 was determined as 13 µM in assay [1], 280 nM in assay [2] and 230 nM in assay [3]. Further, the response vs control in vivo at 20 mg/kg in assay [4] amounted to 45%.

Take `CCCCN(CCCC)CCCOc1ccc(-c2nc3ccccc3s2)cc1` [Example 43, 2-(4-Dibutylaminopropoxyphenyl)benzothiazole]: the IC50 in assay [1] came out at 18 µM; in assay [2], 250 nM; in assay [3], 2600 nM.

In the case of `CCN(CC)CCCOc1ccc(/C=C/c2nc3ccccc3s2)cc1` [Example 30, (E)-2-[2-(4-Diethylaminopropoxyphenyl)ethenyl]benzothiazole], the figures for the IC50 in assay [2] and in assay [3] were 370 nM and 150 nM, respectively. Moreover, the response vs control in vivo at 40 mg/kg in assay [4] amounted to 71%.

`CCN(CC)CCCOc1ccc(/C=C/c2nc3ccccc3o2)cc1` [Example 11, (E)-2-[2-(4-Diethylaminopropoxyphenyl)ethenyl]benzoxazole]: in assay [1], the inhibition at 100 µM came out at 20%. Besides, the IC50 amounted to 320 nM in assay [2] and 980 nM in assay [3]. Further, the response vs control in vivo at 40 mg/kg in assay [4] turned out to be 54%.

With `C(=C\c1nc2ccccc2o1)/c1ccc(OCCCCn2ccnc2)cc1` [Example 21], the IC50 stood at 30 µM in assay [1], 270 nM in assay [2] and 330 nM in assay [3]. Besides, in assay [4], the response vs control in vivo at 20 mg/kg came out at 14%.

In the case of `COc1ccccc1N1CCN(CCCOc2ccc(/C=C/c3nc4ccccc4s3)cc2)CC1` [Example 31], the inhibition at 100 µM in assay [1] is 33%. Besides, the IC50 in assay [2] stood at 1700 nM; in assay [3] it was 3400 nM. Also, the response vs control in vivo at 20 mg/kg in assay [4] turned out to be 11%.

On to `CCCN(CCC)CCCOc1c(C)cc(/C=C/c2nc3ccccc3o2)cc1C` [Example 47], for which the IC50 in assay [1] is 15 µM; in assay [2], 140 nM; in assay [3], 100 nM. Also, in assay [4], the response vs control in vivo at 20 mg/kg stood at 90%.

For `CCCCN(CCCC)CCCOc1ccc(/C=C/c2nc3cc(Cl)ccc3s2)cc1` [Example 36, (E)-2-[2-(4-Dibutylaminopropoxyphenyl)ethenyl]-5-chlorobenzothiazole], the inhibition at 100 µM in assay [1] worked out at 52%. Moreover, the figures for the IC50 in assay [2] and in assay [3] were 400 nM and 500 nM, respectively. Further, the response vs control in vivo at 40 mg/kg in assay [4] came out at 26%.

Consider `CCCN(CCC)CCCOc1ccc(/C=C/c2nc3ccccc3s2)cc1` [Example 29, (E)-2-[2-(4-Dipropylaminopropoxyphenyl)ethenyl]benzothiazole], for which the IC50 is 260 nM in assay [2] and 210 nM in assay [3]. For the same molecule, the response vs control in vivo at 20 mg/kg in assay [4] amounted to 30%.

For the molecule `C(=C\c1nc2ccccc2s1)/c1ccc(OCCCCn2ccnc2)cc1` [Example 40, (E)-2-[2-(4-(1H-Imidazol-1-yl)butoxyphenyl)ethenyl]benzothiazole], the IC50 in assay [2] amounted to 200 nM; in assay [3], 260 nM. Further, in assay [4], the response vs control in vivo at 40 mg/kg stood at 17%.
